Reference: ChEMBL document CHEMBL1133360, “Design, synthesis, and biological activity of a cyclic peptide: an inhibitor of HIV-1 tat-TAR interactions in human cells” (Bioorg Med Chem Lett, 2000)
Where a SMILES comes first, the peptide text is derived from it. [ ]: non-standard residue; d: D form.

What was measured:
[1] = Inhibitory activity of compound was tested against transcriptional activation by Tat protein in human cells; type: functional, cell-based
Homo sapiens = organism: Homo sapiens; test: Percent of Tat-activation inhibited at 500 uM of the compound; type: functional

IC50 [1]	Compound	inhibition (Homo sapiens)
~0.05 µM	NCCCC[C@H](N)C(=O)N[C@H](CCCCN)C(=O)N[C@@H](CC(N)=O)C(=O)O (H-Lys-[dK]-Asn-OH)	
~0.04 µM	NCCCC[C@@H]1NC(=O)[C@@H](N)CCCCNC(=O)CC[C@@H](C(=O)O)NC(=O)[C@H](CC(N)=O)NC(=O)[C@@H](CCCCN)NC1=O	> 90%
